Experimental findings from patent US12161722B2, “Bifunctional heterocyclic compound having BTK degradation function via ubiquitin proteasome pathway, and use thereof” (KOREA RESEARCH INSTITUTE OF CHEMICAL TECHNOLOGY, priority 2021, dated 2024) are described below.

The target of one assay is T1, C481S BTK protein (Homo sapiens, UniProt Q06187, C481S).
T1 construct: expressed in transfected cells; host or cells: 293T BTK MUT (C481S) cells
The experiment in a line: BTK protein degradation assay (Western blotting), C481S BTK. The assay is classed as cell-based. The conditions noted are these: concentration range accounting for 50% degradation of C481S BTK protein, 293T BTK MUT (C481S) cells. Here is the method:
TMD-8, RAMOS, or 293T BTK MUT (C481S) cells were treated with the synthesized compounds and measured for intracellular BTK protein levels by Western blotting. The protocol of the experiment using TMD-8 cells is as follows.
The 12-well plates were treated as follows. A 10 mM stock was 1/10 diluted in series with DMSO ([…]) to form final concentrations of 10, 1, 0.1, 0.01, 0.001, and 0.0001 mM. The compounds with such concentrations were applied to cells, followed by harvesting the cells 24 hours later. For a negative control, a 1/10 dilution of DMSO in the medium (3 mL DMSO+27 mL medium) was used.
The 1-mL cell culture in each well was passed many times through a pipette and then transferred into a 1.5-mL microtube before centrifugation (500 g, 5 min, 4° C.). The supernatant was discarded and the cell pellet was washed with PBS. After centrifugation (500 g, 5 min, 4° C.) again, the supernatant was discarded and the cell pellet was taken.
A lysis buffer was prepared as follows. RIPA buffer (Biosesang, RC2038-050-00)+0.5 mM PMSF (SIGMA, P7626)+1×Protease/Phosphatase Inhibitor (Cell signaling, 5872S) was added in an amount […] per well and left for 30 minutes on ice (vortexing at 0 and 30 minutes) before sonication (5 cycles of pulse for 10 seconds and rest for 30 seconds, 70% amplification). The supernatant obtained by centrifugation (15000 g, 15 min, 4° C.) was transferred into a new microtube. Cells in each well of 96-well plates were 1/2 diluted with the RIPA buffer and incubated at 37° C. for 30 minutes with […] of a 50:1 mixture of BCA reagents A and B in BCA Protein Assay Kit (iNtRON, 21071). After being cooled for 10 minutes, the 96-well plates were measured for absorbance at 562 nm on the BioTek, SYNERGY H1 microplate reader. Samples were prepared by protein quantification based on the absorbance measurements and then boiled at 70° C. for 10 minutes. The sample buffer used in the case was prepared by mixing a NuPAGE or a Bolt 4× sample buffer (Invitrogen) and its 10× sample reducing agent depending on the gel to be used, and protein dilution was made in a RIPI buffer.
The samples were loaded in the same amount into a NuPAGE or Bolt Bis-tris 4-12% gradient gel and allowed to run therein (200 V, 35 minutes). The separated proteins were transferred onto a […] NC membrane, using Trans-blot Turbo (BIO-RAD) (1.3 A constant, 25V limit, 15 minutes). The membrane was blocked at room temperature for 1 hour with skim milk or Intercept Blocking Buffer (LI-COR, 927-60001):0.1% TBST=1:1. The membrane was incubated with Anti BTK Rabbit (1:1,000 in 5% skim milk/0.2% TBST, size: 77 kDa, Cell signaling Technology) at 4° C. overnight O/N or at room temperature for 2 hours and with Anti GAPDH Rabbit (1:10,000 in 5% BSA/0.2% TBST, size: 36 kDa, GENETEX) and Anti β-actin mouse (1:10,000 in 5% BSA/0.2% TBST, RT, size: 43 kDa, GENETEX) at room temperature for 1 or 3 hours. Then, the membrane was washed three times with 0.5% TBST for 5 minutes each time before incubation with the second antibody Anti-Rabbit IgG (1:5,000 in 5% Skim milk/TBST, CST), IRDye® 800CW Goat anti-Rabbit IgG Secondary Antibody (1:10,000 in 5% skim/TBST, RT 45 min), or IRDye® 680RD Goat anti-Mouse IgG Secondary Antibody (1:10,000 in 5% skim/TBST, RT 45 min) for 45 minutes at room temperature in a rocker. The membrane was washed five times with 0.5% TBST for 5 minutes in each time, followed by detection with LI-COR, Odyssey. In this regard, the detection proceeded, as it was, for house-keeping genes while using SuperSignal West Pico PLUS Chemiluminescent Substrate or SuperSignal West femto Maximum Sensitivity Substrate for BTK detection.
According to the concentration ranges of compounds accounting for 50% degradation of WT BTK protein and C481S BTK protein, the activities are expressed as +++(0.0001-0.01 μM), ++(0.01-1 μM), +(1-10 μM), −(>10 μM), and NT (not tested). […]
A general note: In western blotting, separated proteins are transferred to a membrane and probed.

The target in another assay is T2, WT BTK protein (Homo sapiens, UniProt Q06187).
T2 construct: measured for intracellular BTK protein levels by Western blotting; endogenous in cells; host or cells: TMD-8 or RAMOS cells
In words: BTK protein degradation assay (Western blotting), WT BTK. It counts as cell-based. Conditions: concentration range accounting for 50% degradation of WT BTK protein, TMD-8 or RAMOS cells, 24 hours. An outline of the steps:
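TMD-8 cells (1×10^6 cells/mL) treated 24 h with compound serial dilutions, then lysed in RIPA. Equal protein loads analysed by Western blot for BTK with GAPDH/β-actin as loading controls; activity binned by concentration giving 50% WT BTK degradation.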

T2 sequence (Q06187 whole entry): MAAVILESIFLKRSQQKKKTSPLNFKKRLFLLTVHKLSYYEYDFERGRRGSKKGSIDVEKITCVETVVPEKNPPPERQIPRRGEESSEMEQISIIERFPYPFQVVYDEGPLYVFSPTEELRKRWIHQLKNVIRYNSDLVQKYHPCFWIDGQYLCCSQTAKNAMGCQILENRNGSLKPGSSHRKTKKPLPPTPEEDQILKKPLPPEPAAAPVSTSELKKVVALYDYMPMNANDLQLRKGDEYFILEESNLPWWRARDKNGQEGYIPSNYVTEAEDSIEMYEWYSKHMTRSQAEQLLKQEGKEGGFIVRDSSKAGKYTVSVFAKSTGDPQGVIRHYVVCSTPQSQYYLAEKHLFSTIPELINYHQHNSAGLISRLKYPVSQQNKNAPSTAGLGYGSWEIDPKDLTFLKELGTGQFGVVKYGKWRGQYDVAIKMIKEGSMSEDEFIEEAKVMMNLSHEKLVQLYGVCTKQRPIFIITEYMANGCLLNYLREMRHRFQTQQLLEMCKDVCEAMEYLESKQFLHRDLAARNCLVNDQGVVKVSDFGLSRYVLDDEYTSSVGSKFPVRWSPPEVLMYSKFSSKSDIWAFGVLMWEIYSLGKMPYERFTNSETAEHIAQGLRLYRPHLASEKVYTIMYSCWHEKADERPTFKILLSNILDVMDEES
T1 sequence (Q06187 whole entry C481S): as the sequence (Q06187 whole entry) above, with C481S counted along it

The DC50 is the concentration at which degradation of the target reaches its halfway point. For the compound `Cc1cccc(C)c1Nc1nn(C)c2nc(Nc3ccc4c(c3)CN(C(=O)CCCCCNc3cccc5c3C(=O)N(C3CCC(=O)NC3=O)C5=O)CC4)ncc12` (centres unmarked) [Compound 1, 4-((6-(7-((3-((2,6-Dimethylphenyl)amino)-1-methyl-1H-pyrazolo[3,4-d]pyrimidin-6-yl)amino)-3,4-dihydroisoquinolin-2 (1H)-yl)-6-oxohexyl)amino)-2-(2,6-dioxopiperidin-3-yl)isoindoline-1,3-dione], the figures for the DC50 on C481S BTK protein and at WT BTK protein were over 10000 nM and 10 to 1000 nM, respectively. Regarding `Cc1cccc(C)c1Nc1nn(C)c2nc(Nc3ccc4c(c3)CN(C(=O)COCCOCCNc3ccc5c(c3)C(=O)N(C3CCC(=O)NC3=O)C5=O)CC4)ncc12` (centres unmarked) [Compound 2, 5-((2-(2-(2-(7-((3-((2,6-Dimethylphenyl)amino)-1-methyl-1H-pyrazolo[3,4-d]pyrimidin-6-yl)amino)-3,4-dihydroisoquinolin-2 (1H)-yl)-2-oxoethoxy)ethoxy)ethyl)amino)-2-(2,6-dioxopiperidin-3-yl)isoindoline-1,3-dione], the DC50 on C481S BTK protein fell in the range of 10 to 1000 nM; on WT BTK protein it was 0.1 to 10 nM. In the case of `Cc1cccc(C)c1Nc1nn(C)c2nc(Nc3ccc4c(c3)CN(C(=O)COCCOCCNc3cccc5c3C(=O)N(C3CCC(=O)NC3=O)C5=O)CC4)ncc12` (centres unmarked) [Compound 3, 4-((2-(2-(2-(7-((3-((2,6-Dimethylphenyl)amino)-1-methyl-1H-pyrazolo[3,4-d]pyrimidin-6-yl)amino)-3,4-dihydroisoquinolin-2 (1H)-yl)-2-oxoethoxy)ethoxy)ethyl)amino)-2-(2,6-dioxopiperidin-3-yl)isoindoline-1,3-dione], the half-maximal degradation concentration (DC50) at C481S BTK protein lay in the range of 1000 to 10000 nM; on WT BTK protein, 0.1 to 10 nM. Regarding `Cc1cccc(C)c1Nc1nn(C)c2nc(Nc3ccc4c(c3)CN(C(=O)COCCOCCNC(=O)C3CCN(c5cccc6c5C(=O)N(C5CCC(=O)NC5=O)C6=O)CC3)CC4)ncc12` (centres unmarked) [Compound 4, N-(2-(2-(2-(7-((3-((2,6-Dimethylphenyl)amino)-1-methyl-1H-pyrazolo[3,4-d]pyrimidin-6-yl)amino)-3,4-dihydroisoquinolin-2 (1H)-yl)-2-oxoethoxy)ethoxy)ethyl)-1-(2-(2,6-dioxopiperidin-3-yl)-1,3-dioxoisoindolin-4-yl)piperidine-4-carboxamide], the results for the DC50 on C481S BTK protein and on WT BTK protein were 1000 to 10000 nM and 10 to 1000 nM, respectively. Consider `Cc1cccc(C)c1Nc1nn(C)c2nc(Nc3ccc4c(c3)CN(C(=O)COCCOCCOCCOCCNC(=O)C3CCN(c5cccc6c5C(=O)N(C5CCC(=O)NC5=O)C6=O)CC3)CC4)ncc12` (centres unmarked) [Compound 5, N-(14-(7-((3-((2,6-Dimethylphenyl)amino)-1-methyl-1H-pyrazolo[3,4-d]pyrimidin-6-yl)amino)-3,4-dihydroisoquinolin-2 (1H)-yl)-14-oxo-3,6,9,12-tetraoxatetradecyl)-1-(2-(2,6-dioxopiperidin-3-yl)-1,3-dioxoisoindolin-4-yl)piperidine-4-carboxamide], for which the 50% degradation concentration (DC50) at C481S BTK protein and on WT BTK protein was 10 to 1000 nM in each case.

Regarding `COCCOc1cc(C)c(Nc2nn(C)c3nc(Nc4ccc5c(c4)C(C)(C)N(C(=O)CCC(=O)Nc4ccc(OCCOCCOCCOCCNc6cccc7c6C(=O)N(C6CCC(=O)NC6=O)C7=O)cc4)CC5)ncc23)c(C)c1` (centres unmarked) [Compound 6, N-(4-(2-(2-(2-(2-((2-(2,6-Dioxopiperidin-3-yl)-1,3-dioxoisoindolin-4-yl)amino)ethoxy)ethoxy)ethoxy)ethoxy)phenyl)-4-(7-((3-((4-(2-methoxyethoxy)-2,6-dimethylphenyl)amino)-1-methyl-1H-pyrazolo[3,4-d]pyrimidin-6-yl)amino)-1,1-dimethyl-3,4-dihydroisoquinolin-2 (1H)-yl)-4-oxobutanamide], the DC50 on C481S BTK protein and on WT BTK protein was 10 to 1000 nM each time. `Cc1cccc(C)c1Nc1nn(C)c2nc(Nc3ccc4c(c3)CN(C(=O)CCCCCCCCCCCNc3cccc5c3C(=O)N(C3CCC(=O)NC3=O)C5=O)CC4)ncc12` (centres unmarked) [Compound 7, 4-((12-(7-((3-((2,6-Dimethylphenyl)amino)-1-methyl-1H-pyrazolo[3,4-d]pyrimidin-6-yl)amino)-3,4-dihydroisoquinolin-2 (1H)-yl)-12-oxododecyl)amino)-2-(2,6-dioxopiperidin-3-yl)isoindoline-1,3-dione]: the values for the DC50 on C481S BTK protein and at WT BTK protein were over 10000 nM and 0.1 to 10 nM, respectively.

Turning to `Cc1cccc(C)c1Nc1nn(C)c2nc(Nc3ccc4c(c3)CN(C(=O)COCCOCCOCCOCCNc3ccc5c(c3)C(=O)N(C3CCC(=O)NC3=O)C5=O)CC4)ncc12` (centres unmarked) [Compound 8, 5-((14-(7-((3-((2,6-Dimethylphenyl)amino)-1-methyl-1H-pyrazolo[3,4-d]pyrimidin-6-yl)amino)-3,4-dihydroisoquinolin-2 (1H)-yl)-14-oxo-3,6,9,12-tetraoxatetradecyl)amino)-2-(2,6-dioxopiperidin-3-yl)isoindoline-1,3-dione], the DC50 at C481S BTK protein is 10 to 1000 nM; at WT BTK protein it was 0.1 to 10 nM. Consider `Cc1cccc(C)c1Nc1nn(C)c2nc(Nc3ccc4c(c3)CN(C(=O)COCCOCCOCCOCCNC(=O)COc3ccc5c(c3)C(=O)N(C3CCC(=O)NC3=O)C5=O)CC4)ncc12` (centres unmarked) [Compound 9, N-(14-(7-((3-((2,6-Dimethylphenyl)amino)-1-methyl-1H-pyrazolo[3,4-d]pyrimidin-6-yl)amino)-3,4-dihydroisoquinolin-2 (1H)-yl)-14-oxo-3,6,9,12-tetraoxatetradecyl)-2-((2-(2,6-dioxopiperidin-3-yl)-1,3-dioxoisoindolin-5-yl)oxy)acetamide], for which the DC50 at C481S BTK protein is over 10000 nM; at WT BTK protein it was 10 to 1000 nM. Taken in the same sequence, the figures for `Cc1cccc(C)c1Nc1nn(C)c2nc(Nc3ccc4c(c3)CN(C(=O)COCCOCCOCCOCCNC(=O)CNc3cccc5c3C(=O)N(C3CCC(=O)NC3=O)C5=O)CC4)ncc12` (centres unmarked) [Compound 10, N-(14-(7-((3-((2,6-Dimethylphenyl)amino)-1-methyl-1H-pyrazolo[3,4-d]pyrimidin-6-yl)amino)-3,4-dihydroisoquinolin-2 (1H)-yl)-14-oxo-3,6,9,12-tetraoxatetradecyl)-2-((2-(2,6-dioxopiperidin-3-yl)-1,3-dioxoisoindolin-4-yl)amino)acetamide] were over 10000 nM and 10 to 1000 nM. As for `Cc1cccc(C)c1Nc1nn(C)c2nc(Nc3ccc4c(c3)CN(Cc3cn(CCOCCOCCNC(=O)CNc5cccc6c5C(=O)N(C5CCC(=O)NC5=O)C6=O)nn3)CC4)ncc12` (centres unmarked) [Compound 11], the DC50 was over 10000 nM on C481S BTK protein and 0.1 to 10 nM at WT BTK protein. Take `Cc1cccc(C)c1Nc1nn(C)c2nc(Nc3ccc(C4CCN(CC5CCN(c6cc7c(cc6F)C(=O)N(C6CCC(=O)NC6=O)C7)CC5)CC4)cc3)ncc12` (centres unmarked) [Compound 272, 3-(5-(4-((4-(4-((3-((2,6-dimethylphenyl)amino)-1-methyl-1H-pyrazolo[3,4-d]pyrimidin-6-yl)amino)phenyl)piperidin-1-yl)methyl)piperidin-1-yl)-6-fluoro-1-oxoisoindolin-2-yl)piperidin-2,6-one]: the DC50 on WT BTK protein is 0.1 to 10 nM.
